Tests used:
humans = conditions: selective trigeminal irritant during nocturnal sleep; cited from earlier work
healthy subjects [1] = test: Arousal and wake-up frequency after odorant presentation during sleep (polysomnography); assay type: in vivo, human; conditions: odor vs clean-air baseline, across sleep stages; 5-20 s stimuli, 50% odor concentration
Excerpt: (§1) Odorants were delivered with a computer-controlled air dilution olfactometer built according to principals described in Sobel et al. 1997; Johnson and Sobel 2007 which are incorporated herein by reference. Room air (3 Liter per minute) was mixed with the odorized air (3 liter per minute), resulting in odor concentration of 50%. The odorant line culminated at a small nasal mask that was subserved by a vacuum line pulling at the same rate of airflow. This provided an odor environment at the nose where odorant onset and offset occurred within 2 and 260 ms, respectively, with no visual, auditory, tactile, humidity, or thermal cues as to the alteration. In other words, the odorant stimulus was not a puff of air but rather a block of odorant embedded within an airflow that was constant for the duration of the study. The olfactometer itself was located in a room adjacent to the sleep room, and only the airflow tubing crossed into the sleep room via a wave guide within the stainless steel-coated wall. This provided additional separation from any possible visual or auditory stimulation associated with the olfactometer (e.g., LEDs on its front panel, etc.).
Physiological measurements were recorded using a Power-Lab 16SP Monitoring System (ADInstruments) running off a Macintosh G4 computer using a sampling rate of 1000 Hz and a 50-Hz notch filter to remove electrical artifacts. For all measures dependent on electrodes, the scalp surface was cleaned with mild abrasive gel (Nuprep gel, Aurora) in order to assist in lowering impedance at the electrode site. For pasted to electrodes on the rest of the body, the skin surface was also first cleaned with alcohol. The following measures were recorded:
Electroencephalogram (EEG) was obtained through 2 circular electrodes ([…]) that were located at positions C3 and C4 according to the 10-20 system and were referenced to electrodes on the opposite mastoids (A2 and A1, respectively). Signals were amplified using a preamplifier (Octal Bio Amp ML138, ADInstruments).
Electromyogram (EMG) was obtained through 2 circular Ag/AgCl conductive adhesive electrodes (0.9 cm diameter). The electrodes were located bilaterally adjacent to the submentalis muscles. Signals were amplified using a preamplifier (Octal Bio Amp ML138, ADInstruments). […]
Blood oxygination (SpO2) was measured with an oxymeter (MLT321 SpO2 Finger Clip Sensor, ADInstruments) embedded within a finger clip placed on the left index finger.
Sleep stages were scored off-line according to the R and K criteria (Rechtschaffen and Kales 1968). […]
The experimenters observed the real-time polysomnography reading, and 20 min after they determined that the subject had entered stage 2 sleep, they initiated the experimental protocol that from this point on was computer controlled. […]

healthy subjects [2] = test: Respiration (inhale/exhale volume) after odorant presentation during sleep; assay type: in vivo, human; conditions: for inhale/exhale volume ratio following odor presentation in comparison to baseline: nasal respiration, across all sleep stages; for difference in respiration volume ratio across sleep stages: repeated measures ANOVA between sleep stages
Excerpt: as §1
Overall respiration was computed as a reflection of changes in thoracic respiration and abdominal respiration circumference measured using 2 piezoelectric respiratory belt transducers (1132 Pneumotrace II, UFI).
Nasal and Oral respiration was measured using separate pneumotachometers (high-sensitivity flowmeter model #4719, Hans Rudolph, Inc.) that were attached in line with the vent ports of the mask. The pneumotachometer differential pressure was measured and converted to a voltage signal using a spirometer (ML141, ADInstruments) that delivered the voltage to the instrumentation amplifier.
The effects of odorants on 4 breath parameters were tested: breath mean airflow velocity, breath maximum airflow velocity, breath volume, and breath duration. Breath volume was calculated by the trapezoidal Reimann sum method (Johnson et al. 2006). Breaths were aligned in time by setting the point at which the breath passed from the expiratory phase to the inspiratory phase as time 0.
The experimenters observed the real-time polysomnography reading, and 20 min after they determined that the subject had entered stage 2 sleep, they initiated the experimental protocol that from this point on was computer controlled. Every 9, 12, or 15 min (randomized), the olfactometer generated a 5-, 10-, or 20-s (randomized) odor stimulus. […] Upon spontaneous morning wake-up, subjects again rated the intensity and pleasantness of the odorant and were then debriefed, paid, and released.
Averages of respiration measurements for inhalation, exhalation, and inhalation/exhalation ratio in the 30 breaths before odor onset were compared with the averages of respiration measurements for inhalation, exhalation, and inhalation/exhalation ratio for each one of 6 breaths after odor onset across sleep stages per odorant and for all odorants together. This analysis was corrected for the 6 comparisons using a Bonferroni correction. Respiratory measurements were compared between sleep stages per odorant in a repeated measures ANOVA.
The second alternative is that, although oral respiration typically reflects only; 4% of overall respiration in sleep (Fitzpatrick et al. 2003), the odorant may have changed the balance between nasal and oral breathing such that oral inspiration increased. Under this scenario, the increase in nasal exhalation reflected an increase in oral inspiration rather than the exhalation of air stored in the lungs. The above data could not discriminate between these alternatives because it relied on accurate measurement of nasal respiration alone. An additional control group of 10 subjects were studied using the odorant vetiver oil that in addition to the nasal mask were fitted with an oral mask in order to accurately measure oral and nasal respiration simultaneously.

8-day-old rats = conditions: cited from earlier work
[3] = first breath after dispersion, worded 'may' in the description

Row | Compound | effect of odor on arousal frequency (healthy subjects [1]) | effect of odor on wake-up frequency (healthy subjects [1]) | inhale/exhale volume ratio following odor presentation in comparison to baseline (healthy subjects [2]) | difference in respiration volume ratio across sleep stages (healthy subjects [2]) | other results
1 | O=C=O [CO2] |  |  |  |  | arousal frequency (humans): concentration-dependent increase in arousal frequency
2 | COc1cc(C=O)ccc1O [vanillin] | no effect of odor on arousal | no effect of odor on wake-up | significantly smaller | no difference | decrease of inhalation volume (healthy subjects [2]; [3]): about 23%; increase of exhalation volume (healthy subjects [2]; [3]): about 6%; reduction of nasal inhalation/exhalation volume ratio (healthy subjects [2]; first breath after odor onset, worded 'may' in the description): about 27%; reduction of nasal inhalation/exhalation volume ratio (healthy subjects [2]; sixth breath after odor onset, worded 'may' in the description): about 5%
3 | [NH4+].[NH4+].[S-2] [ammonium sulfide] | no effect of odor | no effect of odor on wake-up | significantly smaller | no difference | 
4 | CSSC [DMDS, dimethyl disulfide] |  |  |  |  | sniffing during sleep (8-day-old rats; 8-day-old rats presented with odorant): sniffing, including polypnea, occurred while the rats were asleep; arousal responses (8-day-old rats; sleeping 8-day-old rats): did not evoke reliable arousal responses
